Experimental data: patent US7855076B2, “Use of discoidin domain receptor 1 (DDR1) and agents that affect the DDR1/collagen pathway” (The United States of America as represented by the …, priority 2002, dated 2010)

How the values were obtained:
DDR1 = assay: Cell-surface DDR1 expression on PMN by flow cytometry; type: cell-based, human
Description: PMN were incubated in presence of IFN-γ or GM-CSF for 24 hours and the expression of cell-surface DDR1 was measured by flow cytometry using an antibody raised against the extracellular domain of the receptor. One hundred thousand cells were suspended in 50 μl of cold PBS containing 0.1% NaN3, […] BSA and 200 μg/ml human IgG in a Falcon 2052, tube, and incubated for 10 minutes on ice. One μg of anti-DDR1 rabbit polyclonal antibody raised aginst the N-terminus of DDR1 (Transgenic, Inc., Kumamoto, Japan), or control mouse IgG was added to each tube and the cells were incubated for another 15 minutes on ice. The cells were washed with PBS, and then incubated with 1 μg of FITC-conjugated goat anti-mouse IgG for 15 minutes on ice. At the end of incubation, PI was added to each tube (100 μM). The cells were washed by PBS, and subsequently analyzed by using a FACS scan (Becton Dickinson). Dead cells, determined by the incorporation of PI, were gated out. Results were processed by using the Cellquest software (Becton Dickinson).

p38 MAP kinase = assay: Phosphorylation of p38 MAP kinase in PMA-treated THP-1 cells, Western blotting; type: cell-based, human
Description: Parental, mock, DDR1a- or DDR1b-overexpressing THP-1 cells were plated at 5×10^6/ml on uncoated tissue culture plates and stimulated with PMA (10 nM) for 24 hours, and then starved in RMPI 1640 without FCS for 10 hours. Subsequently cells were washed three times with PBS, and then incubated in the presence of 50 μg/ml collagen type I for various times.
Ten million cells were lysed on ice for 20 minutes in a buffer containing 50 mM NaCl, 20 mM Tris-HCl, 50 mM sodium fluoride, 30 mM Na4P2O7, 5 mM EGTA, 3 mM sodium orthovanadate, 1% Triton X-100, 1 mg/ml leupeptin, 1 mM PMSF, 1 mg/ml aprotinin, 1 mg/ml pepstatinA and 100 μM sodium orthovanadate treated with H2O2. A lysis buffer containing 150 mM NaCl, 50 mM HEPES, 1% Triton-X 10% glycerol, 1 mM sodium fluoride, 1 mM EDTA, 2 mM sodium orthovanadate, 1 mg/ml leupeptin, 1 mM PMSF, 1 mg/ml aprotinin, 1 mg/ml pepstatinA and 100 μM sodium orthovanadate treated with H2O2, was also used for immunoprecipitation with anti-Shc Ab. The lysates were spun in a microcentrifuge for 20 minutes and the supernatants were collected. […]
Eluted proteins were analyzed on 8% polyacrylamide gels by SDS-PAGE and transferred electrophoretically to nitrocellulose membranes at 150 mA for 1 hour by a semi-dry system. […] To detect phosphorylated or nonphosphorylated p38 MAP kinase or ATF-2, 20 μl of cell lysates were directly mixed with 20 μl of sample buffer and then analyzed.
Downstream signaling molecules that may play a role in the up-regulation of HLA-DR in collagen-activated PMA-treated DDR1b-overexpressing cells were identified in the following manner. […] Phosphorylation of p38 MAP kinase was first detected 30 minutes after collagen activation of DDR1b-overexpressing cells and the level of phosphorylation increased thereafter. […] Phosphorylation of p38 MAP kinase was not detected in DDR1a-overexpressing cells up to 120 minutes. […] Phosphorylation of other members of the MAP kinase family, ERK1, ERK2, and JNK could not be detected in collagen-activated PMA-treated DDR1b-overexpressing cells. […]

Substance | IFNγ-induced DDR1 expression (DDR1) | phosphorylation of p38 MAP kinase (p38 MAP kinase; DDR1a-overexpressing cells, up to 120 minutes) | time phosphorylation of p38 MAP kinase first detected (p38 MAP kinase; DDR1b-overexpressing cells) [min]
TNF-α | almost completely inhibited | – | –
collagen | – | not detected | 30
